Assay results from patent US8772319B2 (priority 2004, dated 2014).
Several values for one entry are separate records, joined by “and”; a condition that tells them apart may be missing. Identical values can stand only once. Counter-ions that a name gives are not always drawn. Like-named read-outs stand apart in the source and are kept apart here.

What was measured:
[1] = system: male Swiss-Webster mice; assay: Locomotor activity, compound alone, 1-h session; format: in vivo, mouse; conditions: for ED50: Mus musculus, ip, 1 h, read-out: ED50, dose producing 1/2 maximal stimulant activity (S, stimulation); for mode of action: ligand alone study; for ME/CME, Maximal Effect/Cocaine Maximal Effect: mouse locomotor activity; for effect on spontaneous LMA: compound alone
Description: (§1) 3. Locomotor Activity. […] Panels of infrared beams (16 beams) and corresponding photodetectors were located in the horizontal direction along the sides of each activity chamber. […] Just prior to placement in the apparatus, all mice received a saline injection IP. In all studies, horizontal activity (interruption of 1 photocell beam) was measured for 1-h within 10-min periods. Testing was conducted with one mouse per activity chamber. […] Plot the mean (±SEM) maximal stimulant activity (total counts in the 30 min period divided by 3) vs dose. Perform a log10 transformation of the 30 min period average counts for individual subjects to homogenize variances for subsequent analyses. […] Fit the 30 min period average counts across subjects to a function of log10 dose using least-squares curve-fitting analyses (i.e. TableCurve software from Jandel). Estimate the maximum effect from the resultant dose-response curve. […] Determine the ED50 (dose that produces ½ maximal stimulant activity) from a linear regression analysis of the ascending portion (up to the dose that produces a maximal effect) of the curve. […] Plot the mean (±SEM) activity (total counts in the 30 min period divided by 3) vs dose. Perform a log10 transformation of the 30 min period average counts for individual subjects to homogenize variances for subsequent analyses. Conduct an ANOVA and contrast (specified a priori) each dose of the test compound to the vehicle to determine significant (p<0.05) dose effects. Conduct a linear least-squares regression analysis; regress the min period average counts across subjects over the descending portion of the curve against the log10 dose of the test compound. […] Perform a log10 transformation of the 30 min period average counts for individual subjects to homogenize variances for subsequent analyses. […] Conduct a linear least-squares regression analysis; regress the 30 min period average counts across subjects over the descending portion of the curve against the log10 dose of the test compound. […] Locomotor Activity 8-hour time course/dose response study. […] A panel of infrared beams (16 beams) and corresponding photodetectors were located in the horizontal direction along the sides of each activity chamber. A 7.5-W incandescent light above each chamber provided dim illumination. Fans provided an 80-dB ambient noise level within the chamber. […] In all studies, horizontal activity (interruption of photocell beams) was measured for 8-h within 10-min periods, beginning at 0800 hrs (2 hours after lights on). Testing was conducted with one mouse per activity chamber. Compound alone study.

[2] = system: male Swiss-Webster mice; assay: Cocaine/compound interaction study on locomotor activity; format: in vivo, mouse; conditions: for Attenuation of cocaine-induced LMA: 20 mg/kg of cocaine; for AD50, dose attenuating cocaine-induced stimulation by 50%: Table 8, ligand-cocaine interaction study, 20 mg/kg cocaine IP
[3] = target: T1, human dopamine transporter (hDAT) (Homo sapiens, UniProt Q01959); assay: cell-based
[4] = target: T1, human dopamine transporter (hDAT); assay: biochemical; format: binding
[5] = target: T2, human norepinephrine transporter (hNET) (Homo sapiens, UniProt P23975); assay: biochemical; conditions: Table 5, read-out: NET binding affinity Ki
[6] = target: T3, human serotonin transporter (hSERT) (Homo sapiens, UniProt P31645); assay: biochemical; conditions: Table 5; [125I]RTI-55; oxalate salts; read-out: SERT binding affinity Ki
[7] = target: T2, human norepinephrine transporter (hNET); assay: cell-based; conditions: Table 6, read-out: Reuptake Inhibition [3H]NE IC50
[8] = target: T3, human serotonin transporter (hSERT); assay: cell-based
[9] = system: male Swiss-Webster mice; assay: Locomotor activity 8-hour time course/dose response study; conditions: for ED50: Mus musculus, ip, 8 h, read-out: ED50, dose producing 1/2 maximal stimulant activity (S, stimulation)
Description: as §1

[10] = Reuptake Inhibition [3H]DA IC50, Table 6
[11] = Reuptake Inhibition [3H]5-HT IC50, Table 6
[12] = Table 8, mouse, IP, ligand alone, 1-h session

T2 sequence (P23975 whole entry): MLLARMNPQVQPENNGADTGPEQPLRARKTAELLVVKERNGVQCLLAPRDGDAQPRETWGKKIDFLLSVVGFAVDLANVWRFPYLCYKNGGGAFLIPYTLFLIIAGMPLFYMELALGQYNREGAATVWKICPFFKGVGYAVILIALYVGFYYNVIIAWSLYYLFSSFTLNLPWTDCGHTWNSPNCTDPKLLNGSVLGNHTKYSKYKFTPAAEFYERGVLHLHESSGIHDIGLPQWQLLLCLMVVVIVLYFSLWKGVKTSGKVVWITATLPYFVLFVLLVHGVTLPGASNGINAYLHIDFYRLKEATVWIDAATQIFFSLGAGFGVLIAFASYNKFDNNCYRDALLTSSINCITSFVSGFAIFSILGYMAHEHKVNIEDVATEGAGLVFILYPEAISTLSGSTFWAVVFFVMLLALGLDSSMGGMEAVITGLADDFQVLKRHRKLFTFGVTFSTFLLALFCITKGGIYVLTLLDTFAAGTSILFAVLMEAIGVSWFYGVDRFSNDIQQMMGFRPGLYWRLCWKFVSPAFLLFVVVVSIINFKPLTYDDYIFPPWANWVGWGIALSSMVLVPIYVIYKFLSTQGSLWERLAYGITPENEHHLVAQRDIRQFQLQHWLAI
T3 sequence (P31645 whole entry): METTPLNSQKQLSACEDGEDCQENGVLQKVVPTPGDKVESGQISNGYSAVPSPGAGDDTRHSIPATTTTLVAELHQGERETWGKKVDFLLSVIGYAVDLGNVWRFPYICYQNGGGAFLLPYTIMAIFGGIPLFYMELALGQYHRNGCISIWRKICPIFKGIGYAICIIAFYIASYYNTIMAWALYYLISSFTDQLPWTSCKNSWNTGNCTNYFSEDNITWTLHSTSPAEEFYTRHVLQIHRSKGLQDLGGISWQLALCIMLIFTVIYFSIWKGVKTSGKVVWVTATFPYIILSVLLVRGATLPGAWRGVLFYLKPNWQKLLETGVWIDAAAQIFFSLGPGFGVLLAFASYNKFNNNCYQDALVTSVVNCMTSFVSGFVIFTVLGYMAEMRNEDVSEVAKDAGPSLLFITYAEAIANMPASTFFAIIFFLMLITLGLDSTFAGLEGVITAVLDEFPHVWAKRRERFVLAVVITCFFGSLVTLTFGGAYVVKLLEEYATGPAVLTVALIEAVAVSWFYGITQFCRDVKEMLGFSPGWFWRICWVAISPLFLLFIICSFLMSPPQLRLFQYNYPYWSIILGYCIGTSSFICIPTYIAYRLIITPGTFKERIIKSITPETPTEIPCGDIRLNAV
T1 sequence (Q01959 whole entry): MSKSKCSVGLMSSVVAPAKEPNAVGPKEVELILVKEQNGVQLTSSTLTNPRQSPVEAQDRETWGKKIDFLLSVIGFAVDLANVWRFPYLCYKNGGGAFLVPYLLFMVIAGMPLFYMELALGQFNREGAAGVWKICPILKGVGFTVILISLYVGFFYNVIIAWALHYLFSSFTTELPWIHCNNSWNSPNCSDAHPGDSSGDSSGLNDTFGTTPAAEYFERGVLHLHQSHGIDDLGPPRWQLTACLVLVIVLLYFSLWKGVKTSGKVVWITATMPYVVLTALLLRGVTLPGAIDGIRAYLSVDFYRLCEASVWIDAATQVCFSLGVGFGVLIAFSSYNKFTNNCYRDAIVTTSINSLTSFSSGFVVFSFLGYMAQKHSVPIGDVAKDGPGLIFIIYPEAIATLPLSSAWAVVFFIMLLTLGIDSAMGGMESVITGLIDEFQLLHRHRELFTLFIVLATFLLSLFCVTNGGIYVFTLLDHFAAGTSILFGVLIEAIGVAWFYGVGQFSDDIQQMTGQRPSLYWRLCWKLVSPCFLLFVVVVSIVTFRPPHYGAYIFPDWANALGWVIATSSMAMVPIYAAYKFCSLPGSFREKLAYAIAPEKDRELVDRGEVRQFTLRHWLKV

## O=C1CN(CCCCOC(c2ccc(F)cc2)c2ccc(F)cc2)CCN1 (as salt: oxalate) [Compound 27, 2-Oxo-4-[4-[bis(4-fluorophenyl)methoxy]butyl]piperazine]
other
  melting point: 120 to 123 °C

## Fc1ccc(C(OCCCCN2CCN(c3ccccc3)CC2)c2ccc(F)cc2)cc1 (as salt: oxalate) [Compound 29, 1-Phenyl-4-[4-[bis(4-fluorophenyl)methoxy]butyl]piperazine]
other
  melting point: 185 to 187 °C

## Fc1ccc(C(OCCCCN2CCN(c3ccccc3F)CC2)c2ccc(F)cc2)cc1 (as salt: oxalate) [Compound 30, 1-(2-Fluorophenyl)-4-[4-[bis(4-fluorophenyl)methoxy]butyl]piperazine]
other
  melting point: 156 to 158 °C

## Fc1ccc(C(OCCCCN2CCN(c3ccc(Cl)cc3)CC2)c2ccc(F)cc2)cc1 (as salt: oxalate) [Compound 34, 1-(4-Chlorophenyl)-4-[4-[bis(4-fluorophenyl)methoxy]butyl]piperazine]
other
  melting point: 179 to 181 °C

## COc1ccccc1N1CCN(CCCCOC(c2ccc(F)cc2)c2ccc(F)cc2)CC1 (as salt: oxalate) [Compound 35, 1-(2-Methoxyphenyl)-4-[4-[bis(4-fluorophenyl)methoxy]butyl]piperazine]
other
  melting point: 139 to 142 °C

## O=[N+]([O-])c1ccc(N2CCN(CCCCOC(c3ccc(F)cc3)c3ccc(F)cc3)CC2)cc1 (as salt: oxalate) [Compound 38, 1-[4-Nitrophenyl]-4-[1-[bis(4-fluorophenyl)methoxy]-4-butyl]piperazine]
other
  melting point: 196 to 198 °C

## O=C(c1ccccc1)N1CCN(CCCCOC(c2ccc(F)cc2)c2ccc(F)cc2)CC1 (as salt: oxalate) [Compound 40, 1-Benzoyl-4-[1-[bis(4-fluorophenyl)methoxy]-4-butyl]piperazine]
other
  melting point: 121 to 123 °C

## Fc1ccc(C(OCCCCN2CCN(Cc3ccc4c(c3)OCO4)CC2)c2ccc(F)cc2)cc1 (as salt: oxalate) [Compound 41, 1-Benzo[1,3]dioxol-5-ylmethyl-4-[4-[bis(4-fluorophenyl)methoxy]butyl]piperazine]
other
  melting point: 231 to 234 °C

## O=[N+]([O-])c1ccc(S(=O)(=O)N2CCN(CCCCOC(c3ccc(F)cc3)c3ccc(F)cc3)CC2)cc1 (as salt: oxalate) [Compound 42, 1-[4-[Bis(4-fluorophenyl)methoxy]butyl]-4-(4-nitrobenzenesulfonyl)piperazine]
other
  melting point: 170 to 173 °C

## Fc1ccc(C(OCCCCN2CCN(c3ccccc3F)CC2)c2ccc(F)cc2)cc1 [Compound 30, 1-(2-Fluorophenyl)-4-[4-[bis(4-fluorophenyl)methoxy]butyl]piperazine]
[1]
  ED50: 0.015 mg/kg
[1]; Table 8
  mode of action: monophasic
  ME/CME, Maximal Effect/Cocaine Maximal Effect: 0.49
[1]; mouse
  effect on spontaneous LMA: significant increase
[2]
  Attenuation of cocaine-induced LMA: failed to attenuate
  AD50, dose attenuating cocaine-induced stimulation by 50%: no attenuation
[3]; Table 6
  Discrimination Ratios (DR) [3H]DA reuptake/DAT binding: 11.9
[4]; Table 5
  Binding Ratios NET/DAT: 10.8
  Binding Ratios SERT/DAT: 0.8

## Fc1ccc(C(OCCCCN2CCN(c3ccccc3Cl)CC2)c2ccc(F)cc2)cc1 [Compound 32, 1-(2-Chlorophenyl)-4-[4-[bis(4-fluorophenyl)methoxy]butyl]piperazine]
[5]; [125I]RTI-55, oxalate salts
  Ki: 0.54 ± 0.18 µM
[6]
  Ki: 0.088 ± 0.029 µM
[3]; [10]
  IC50: 0.328 ± 0.034 µM
[3]; Table 6
  Discrimination Ratios (DR) [3H]DA reuptake/DAT binding: 4.9
[4]
  Ki: 0.067 ± 0.01 µM
[4]; Table 5
  Binding Ratios NET/DAT: 8.1
  Binding Ratios SERT/DAT: 1.3
[7]
  IC50: 0.29 ± 0.11 µM
[8]; [11]
  IC50: 0.119 ± 0.033 µM

## Fc1ccc(C(OCCCCN2CCN(c3cccc(C(F)(F)F)c3)CC2)c2ccc(F)cc2)cc1 [Compound 36, 1-[3-(Trifluoromethyl)phenyl]-4-[4-[bis(4-fluorophenyl)methoxy]butyl]piperazine]
[1]; Table 8
  mode of action: monophasic
[1]; [12]
  ID50, dose producing 1/2 maximal depressant activity (I, inhibition): 113 mg/kg and 113/I^g mg/kg
[1]; mouse
  effect on spontaneous LMA: Significant suppression
[2]
  AD50, dose attenuating cocaine-induced stimulation by 50%: 18.35 mg/kg
[5]; [125I]RTI-55, oxalate salts
  Ki: 0.222 ± 0.0097 µM
[3]; Table 6
  Discrimination Ratios (DR) [3H]DA reuptake/DAT binding: 11.7
[4]; Table 5
  Binding Ratios NET/DAT: 6.8
  Binding Ratios SERT/DAT: 6.8
[9]
  ED50: 1.1 mg/kg
[9]; Table 9, 8 hours
  ME/CME, Maximal Effect/Cocaine Maximal Effect: 0.46
[9]; Table 9, ligand alone study, 8 hours
  mode of action: monophasic

## CC(=O)c1ccc(N2CCN(CCCCOC(c3ccc(F)cc3)c3ccc(F)cc3)CC2)cc1 [Compound 37, 1-[4-[4-[4-[Bis(4-fluorophenyl)methoxy]butyl]piperazin-1-yl]phenyl]ethanone]
[5]; [125I]RTI-55, oxalate salts
  Ki: 0.112 ± 0.038 µM
[6]
  Ki: 0.042 ± 0.016 µM
[3]; [10]
  IC50: 3.01 ± 0.0086 µM
[3]; Table 6
  Discrimination Ratios (DR) [3H]DA reuptake/DAT binding: 111.5
[4]
  Ki: 0.027 ± 0.0086 µM
[4]; Table 5
  Binding Ratios NET/DAT: 4.1
  Binding Ratios SERT/DAT: 1.6
[7]
  IC50: 0.033 ± 0.015 µM
[8]; [11]
  IC50: 1.23 ± 0.54 µM

## O=[N+]([O-])c1ccc(N2CCN(CCCCOC(c3ccc(F)cc3)c3ccc(F)cc3)CC2)cc1 [Compound 38, 1-[4-Nitrophenyl]-4-[1-[bis(4-fluorophenyl)methoxy]-4-butyl]piperazine]
[5]; [125I]RTI-55, oxalate salts
  Ki: 0.239 ± 0.013 µM
[6]
  Ki: 0.154 ± 0.044 µM
[3]; [10]
  IC50: 2.35 ± 0.54 µM
[3]; Table 6
  Discrimination Ratios (DR) [3H]DA reuptake/DAT binding: 39.2
[4]
  Ki: 0.06 ± 0.019 µM
[4]; Table 5
  Binding Ratios NET/DAT: 4.0
  Binding Ratios SERT/DAT: 2.6
[7]
  IC50: 0.23 ± 0.11 µM
[8]; [11]
  IC50: 0.39 ± 0.13 µM

## Fc1ccc(C(OCCCCN2CCN(Cc3ccc4c(c3)OCO4)CC2)c2ccc(F)cc2)cc1 [Compound 41, 1-Benzo[1,3]dioxol-5-ylmethyl-4-[4-[bis(4-fluorophenyl)methoxy]butyl]piperazine]
[5]; [125I]RTI-55, oxalate salts
  Ki: 0.055 ± 0.018 µM
[6]
  Ki: 0.059 ± 0.022 µM
[3]; [10]
  IC50: 1 ± 0.06 µM
[3]; Table 6
  Discrimination Ratios (DR) [3H]DA reuptake/DAT binding: 30.3
[4]
  Ki: 0.033 ± 0.013 µM
[4]; Table 5
  Binding Ratios NET/DAT: 1.7
  Binding Ratios SERT/DAT: 1.8
[7]
  IC50: 0.043 ± 0.019 µM
[8]; [11]
  IC50: 3.28 ± 0.61 µM

## O=[N+]([O-])c1ccc(S(=O)(=O)N2CCN(CCCCOC(c3ccc(F)cc3)c3ccc(F)cc3)CC2)cc1 [Compound 42, 1-[4-[Bis(4-fluorophenyl)methoxy]butyl]-4-(4-nitrobenzenesulfonyl)piperazine]
[1]; [12]
  ED50, dose producing 1/2 maximal stimulant activity (S, stimulation): no activity
[2]
  Attenuation of cocaine-induced LMA: failed to attenuate
  AD50, dose attenuating cocaine-induced stimulation by 50%: no attenuation
[5]; bound given in μM
  Ki: > 10 µM
[6]
  Ki: 4.93 ± 0.67 µM
[3]; Table 6
  Discrimination Ratios (DR) [3H]DA reuptake/DAT binding: 5.5
[3]; Table 6, read-out: Reuptake Inhibition [3H]DA IC50
  IC50: 4.2 ± 1.1 µM
[4]; Table 5
  Binding Ratios NET/DAT: >13.2
  Binding Ratios SERT/DAT: 6.5
[4]; Table 5, [125I]RTI-55, oxalate salts, read-out: DAT binding affinity Ki
  Ki: 0.76 ± 0.22 µM
[7]; bound given in μM
  IC50: > 10 µM
[8]; Table 6, bound given in μM, read-out: Reuptake Inhibition [3H]5-HT IC50
  IC50: > 10 µM

## Fc1ccc(C(OCCN2CCN(CCCc3ccccc3)CC2)c2ccc(F)cc2)cc1 [GBR 12909, reference compound]
[1]
  ED50: 6.24 mg/kg
[1]; Table 8
  ME/CME, Maximal Effect/Cocaine Maximal Effect: 1.22
[9]
  ED50: 6.9 mg/kg
[9]; Table 9, 8 hours
  ME/CME, Maximal Effect/Cocaine Maximal Effect: 0.73
